Experiments:
[1] = test system: T4 lymphocytes (cell line: CEM-SS); assay: Toxicity control: uninfected T4 lymphocytes (CEM-SS) with compound only, XTT; type: cell-based; conditions: 6 days
Description: (§1) T4 lymphocytes (cell line: CEM-SS), which are killed by HIV within two replication cycles, are used as the test system. That which is detected is the inhibition of cell death. The compound according to the invention is dissolved in DMSO and this solution is diluted with cell culture medium in the ratio 1:100. […] All the cell cultures are examined spectrophotometrically in order to quantify production of formazan. In addition to this, individual cultures are examined microscopically in order to confirm the anti-HIV activity. The virus-infected cells which have been treated with the compound according to the invention are compared with the standard on the same plate. The in-vitro anti-HIV activity data, which were determined within the context of a National Cancer Institute Developmental Therapeutics Program, are summarized in the following table.

HIV = assay: In-vitro anti-HIV effect: inhibition of HIV-induced cell death of T4 lymphocytes (CEM-SS), XTT; type: cell-based; conditions: 6 days
Description: as §1

## CCCCCCCCCCCCCCCC(=O)Nc1ccn(C2CCC(COP(=O)(O)OCC(COP(=O)(O)OCC3OC(n4cc(C)c(=O)[nH]c4=O)CC3N=[N+]=[N-])OC(=O)CCCCCCCCCCCCCCC)O2)c(=O)n1 (racemic) [NSC 704532-F/1, N^4-palmitoyl-2′,3′-dideoxycytidylyl-(5′→1)-2-O-palmitoyl-rac-glycerylyl-(3→5′)-3′-azido-2′,3′-dideoxythymidine]
[1]; read-out: 50% cell growth (IC50)
  IC50: > 1000 nM
[1]; Dose 1.00 * 10^−6 molar
  Percent of control uninfected: 119.96%
[1]; Dose 1.00 * 10^−7 molar
  Percent of control uninfected: 112.26%
[1]; Dose 1.00 * 10^−8 molar
  Percent of control uninfected: 99.64%
[1]; Dose 1.00 * 10^−9 molar
  Percent of control uninfected: 105.03%
[1]; Dose 3.16 * 10^−7 molar
  Percent of control uninfected: 112.02%
[1]; Dose 3.16 * 10^−8 molar
  Percent of control uninfected: 104.96%
[1]; Dose 3.17 * 10^−9 molar
  Percent of control uninfected: 101.22%
[1]; Dose 3.17 * 10^−10 molar
  Percent of control uninfected: 105.43%
HIV; Dose 1.00 * 10^−6 molar
  Percent of control infected: 113.49%
HIV; Dose 1.00 * 10^−6 molar, HIV-infected CEM-SS
  Percent protection: 114.05%
HIV; Dose 1.00 * 10^−7 molar
  Percent of control infected: 106.07%
HIV; Dose 1.00 * 10^−7 molar, HIV-infected CEM-SS
  Percent protection: 106.32%
HIV; Dose 1.00 * 10^−8 molar
  Percent of control infected: 23.62%
HIV; Dose 1.00 * 10^−8 molar, HIV-infected CEM-SS
  Percent protection: 20.44%
HIV; Dose 1.00 * 10^−9 molar
  Percent of control infected: 4.21%
HIV; Dose 1.00 * 10^−9 molar, HIV-infected CEM-SS
  Percent protection: 0.22%
HIV; Dose 3.16 * 10^−7 molar
  Percent of control infected: 104.16%
HIV; Dose 3.16 * 10^−7 molar, HIV-infected CEM-SS
  Percent protection: 104.33%
HIV; Dose 3.16 * 10^−8 molar
  Percent of control infected: 80.22%
HIV; Dose 3.16 * 10^−8 molar, HIV-infected CEM-SS
  Percent protection: 79.40%
HIV; Dose 3.17 * 10^−9 molar
  Percent of control infected: 14.25%
HIV; Dose 3.17 * 10^−9 molar, HIV-infected CEM-SS
  Percent protection: 10.68%
HIV; Dose 3.17 * 10^−10 molar
  Percent of control infected: 5.80%
HIV; Dose 3.17 * 10^−10 molar, HIV-infected CEM-SS
  Percent protection: 1.88%
HIV; HIV-infected CEM-SS, read-out: 50% protection from infection (EC5.)
  EC50: 17.9 nM

Source: US6787525B1, “Glyceryl nucleotides, method for the production thereof and their use” (priority 1998, dated 2004)
